Measured values published in BindingDB's records for PubMed 35653695 (Ecole Polytechnique F?d?rale de Lausanne …, 2022).

Assay: Inhibition of mouse KLK5 assessed as inhibition constant using Boc-VPR-AMC as fluorogenic substrate incubated for 30 mins by fluorescence plate reader assay

Ki: 1.4 nM
SMILES: CCCCCCCCCCCCCCCC(=O)NCCCC[C@H](NC(=O)[C@H](CCC(=O)O)NC(=O)[C@H](Cc1ccc(O)cc1)NC(=O)[C@H](CCC(=O)O)NC(=O)COCCOCCNC(=O)c1ccc(-c2c3ccc(=O)cc-3oc3cc(O)ccc23)c(C(=O)O)c1)C(=O)N[C@@H](CCC(=O)O)C(=O)N[C@@H](Cc1ccc(O)cc1)C(=O)N[C@@H](CCC(=O)O)C(=O)NCCOCCOCC(=O)NCCCC[C@H](NC(=O)CNC(=O)[C@@H]1CSCC(=O)CSC[C@H](NC(=O)CN)C(=O)N[C@@H]([C@@H](C)O)C(=O)N[C@@H](CCCNC(=N)N)C(=O)N[C@@H](CCC(N)=O)C(=O)N[C@@H](Cc2ccc(O)cc2)C(=O)N2CCC[C@H]2C(=O)N1)C(=O)NCC(N)=O
